The numbers were not newly measured in patent US8680078B2, “Stable ophthalmic formulations” (Medivis SRL, priority 2008, dated 2014), which cites them from elsewhere.

Read-outs that look alike come from different tables or passages of the source.

For series [1] the following is noted: pH of 5.6.

With `CC(C)OC(=O)CCC/C=C\C[C@@H]1[C@@H](CC[C@@H](O)CCc2ccccc2)[C@H](O)C[C@@H]1O` [Latanoprost, latanoprost], the “time taken by the concentration of latanoprost to drop to 90% of an initial content” value (50° C.) was 198 h and the “time taken by the concentration of latanoprost to drop to 90% of an initial content” value (75° C.) was 32 h.
With `CCN[C@H]1C[C@H](C)S(=O)(=O)c2sc(S(N)(=O)=O)cc21.Cl` [dorzolamide hydrochloride], in series [1], the maximum solubility entry is given as “about 50 mg/mL”.
